Reference: ChEMBL document CHEMBL1201862, “PubChem BioAssay data set” (2004)
Active and inactive are the calls of the source.

Columns and labels:
Assay type in all cases: functional
Protein RecA = biological target: T1, Protein RecA (Mycobacterium tuberculosis, UniProt P9WHJ3); assay: Fluorescence Cell-Free Homogeneous Dose Retest to Identify Inhibitors of RecA-Intein Splicing Activity. [Related pubchem assays (depositor defined):AID2097, AID2223, AID489010, AID492950]
T1 sequence (P9WHJ3 whole entry): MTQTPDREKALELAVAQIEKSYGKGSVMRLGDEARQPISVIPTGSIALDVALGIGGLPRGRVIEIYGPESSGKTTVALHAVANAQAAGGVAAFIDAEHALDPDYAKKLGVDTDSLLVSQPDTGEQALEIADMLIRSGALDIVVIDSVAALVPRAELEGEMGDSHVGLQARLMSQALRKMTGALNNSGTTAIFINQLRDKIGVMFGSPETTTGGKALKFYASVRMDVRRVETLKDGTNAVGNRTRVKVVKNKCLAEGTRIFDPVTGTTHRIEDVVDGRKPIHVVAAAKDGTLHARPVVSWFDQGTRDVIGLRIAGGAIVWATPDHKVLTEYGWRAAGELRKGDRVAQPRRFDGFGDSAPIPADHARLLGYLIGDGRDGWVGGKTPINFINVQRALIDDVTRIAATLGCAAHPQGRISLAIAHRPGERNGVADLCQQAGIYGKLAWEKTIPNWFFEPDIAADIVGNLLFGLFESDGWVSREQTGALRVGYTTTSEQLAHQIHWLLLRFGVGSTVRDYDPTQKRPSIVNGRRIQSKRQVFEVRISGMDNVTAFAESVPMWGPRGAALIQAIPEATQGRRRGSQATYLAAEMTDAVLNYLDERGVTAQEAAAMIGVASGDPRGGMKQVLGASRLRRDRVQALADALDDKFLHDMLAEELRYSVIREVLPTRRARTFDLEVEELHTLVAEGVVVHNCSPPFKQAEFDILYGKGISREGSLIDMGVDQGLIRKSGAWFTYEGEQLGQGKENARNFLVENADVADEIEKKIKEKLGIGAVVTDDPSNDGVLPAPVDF

[1] = biological target: Tyrosine-protein kinase ABL1 (Homo sapiens, UniProt P00519)
Focal adhesion kinase 1 = Focal adhesion kinase 1 (Homo sapiens, UniProt Q05397);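 also: measured as one member of a kinome panel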
[2] = biological target: Cyclin-dependent kinase 5 (Homo sapiens, UniProt Q00535);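 also: CDK5 measured as one member of a kinase profiling panel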
[3] = biological target: T2, Serine/threonine-protein kinase TBK1 (Homo sapiens, UniProt Q9UHD2); assay: Navigating the Kinome. Panel member name: TBK1
T2 sequence (Q9UHD2 whole entry): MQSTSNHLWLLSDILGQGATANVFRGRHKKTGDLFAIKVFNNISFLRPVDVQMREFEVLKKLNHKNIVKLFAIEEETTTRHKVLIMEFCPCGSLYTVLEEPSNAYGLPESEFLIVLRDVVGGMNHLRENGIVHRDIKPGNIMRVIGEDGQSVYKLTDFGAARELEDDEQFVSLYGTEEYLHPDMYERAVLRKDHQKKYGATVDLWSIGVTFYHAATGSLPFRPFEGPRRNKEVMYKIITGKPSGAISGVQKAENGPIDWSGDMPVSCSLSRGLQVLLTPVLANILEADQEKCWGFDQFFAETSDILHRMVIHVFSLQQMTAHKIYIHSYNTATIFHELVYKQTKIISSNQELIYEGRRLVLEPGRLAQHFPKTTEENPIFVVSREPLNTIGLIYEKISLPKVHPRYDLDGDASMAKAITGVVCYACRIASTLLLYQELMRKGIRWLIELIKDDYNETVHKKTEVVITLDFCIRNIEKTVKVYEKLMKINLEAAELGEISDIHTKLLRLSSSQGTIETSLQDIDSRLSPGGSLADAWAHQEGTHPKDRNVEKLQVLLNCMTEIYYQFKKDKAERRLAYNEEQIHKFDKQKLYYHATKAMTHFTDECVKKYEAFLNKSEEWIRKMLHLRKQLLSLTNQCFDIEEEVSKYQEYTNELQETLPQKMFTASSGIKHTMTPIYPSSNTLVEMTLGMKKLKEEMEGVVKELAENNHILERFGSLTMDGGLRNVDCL

[4] = biological target: T3, Tyrosine-protein kinase receptor TYRO3 (Homo sapiens, UniProt Q06418);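 also: TYRO3 value obtained as one member of a kinome-wide profiling panel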
T3 sequence (Q06418 whole entry): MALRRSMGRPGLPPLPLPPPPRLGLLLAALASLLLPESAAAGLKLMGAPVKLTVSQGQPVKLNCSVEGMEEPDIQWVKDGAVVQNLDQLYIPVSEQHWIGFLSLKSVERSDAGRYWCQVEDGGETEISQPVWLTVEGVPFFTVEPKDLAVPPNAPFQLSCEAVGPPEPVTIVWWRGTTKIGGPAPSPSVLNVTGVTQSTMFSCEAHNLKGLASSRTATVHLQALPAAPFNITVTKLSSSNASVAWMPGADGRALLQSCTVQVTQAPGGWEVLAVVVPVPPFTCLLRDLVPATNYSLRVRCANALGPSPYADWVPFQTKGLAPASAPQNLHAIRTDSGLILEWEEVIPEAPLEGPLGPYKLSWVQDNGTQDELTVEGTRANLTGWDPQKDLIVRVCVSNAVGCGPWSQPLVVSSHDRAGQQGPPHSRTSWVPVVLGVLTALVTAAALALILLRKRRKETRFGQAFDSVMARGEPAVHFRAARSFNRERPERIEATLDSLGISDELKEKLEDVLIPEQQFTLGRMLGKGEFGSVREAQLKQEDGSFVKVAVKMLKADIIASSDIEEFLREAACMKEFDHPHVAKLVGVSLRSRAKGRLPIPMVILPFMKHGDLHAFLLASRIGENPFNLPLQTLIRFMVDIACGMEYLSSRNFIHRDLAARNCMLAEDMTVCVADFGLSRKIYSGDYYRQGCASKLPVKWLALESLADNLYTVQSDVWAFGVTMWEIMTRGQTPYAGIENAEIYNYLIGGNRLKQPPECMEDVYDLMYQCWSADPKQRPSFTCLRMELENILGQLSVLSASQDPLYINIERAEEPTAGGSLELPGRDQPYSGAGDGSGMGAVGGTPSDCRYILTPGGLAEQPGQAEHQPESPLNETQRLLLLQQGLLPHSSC

[5] = biological target: Mitogen-activated protein kinase kinase kinase kinase 4 (Homo sapiens, UniProt O95819)
[6] = biological target: Tyrosine-protein kinase Fyn (Homo sapiens, UniProt P06241)
[7] = biological target: Hepatocyte growth factor receptor (Homo sapiens, UniProt P08581);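 also: kinase panel profiling across the kinome, with MET as the panel member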
[8] = biological target: Mitogen-activated protein kinase 8 (Homo sapiens, UniProt P45983);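 also: value comes from one member of a kinome-wide kinase profiling panel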
[9] = biological target: Insulin-like growth factor 1 receptor (Homo sapiens, UniProt P08069); assay: Navigating the Kinome. Panel member name: IGF1R
[10] = biological target: High affinity nerve growth factor receptor (Homo sapiens, UniProt P04629);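 also: NTRK1 tested as one member of a kinome-wide profiling panel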
High affinity nerve growth factor receptor, sequence (P04629 whole entry): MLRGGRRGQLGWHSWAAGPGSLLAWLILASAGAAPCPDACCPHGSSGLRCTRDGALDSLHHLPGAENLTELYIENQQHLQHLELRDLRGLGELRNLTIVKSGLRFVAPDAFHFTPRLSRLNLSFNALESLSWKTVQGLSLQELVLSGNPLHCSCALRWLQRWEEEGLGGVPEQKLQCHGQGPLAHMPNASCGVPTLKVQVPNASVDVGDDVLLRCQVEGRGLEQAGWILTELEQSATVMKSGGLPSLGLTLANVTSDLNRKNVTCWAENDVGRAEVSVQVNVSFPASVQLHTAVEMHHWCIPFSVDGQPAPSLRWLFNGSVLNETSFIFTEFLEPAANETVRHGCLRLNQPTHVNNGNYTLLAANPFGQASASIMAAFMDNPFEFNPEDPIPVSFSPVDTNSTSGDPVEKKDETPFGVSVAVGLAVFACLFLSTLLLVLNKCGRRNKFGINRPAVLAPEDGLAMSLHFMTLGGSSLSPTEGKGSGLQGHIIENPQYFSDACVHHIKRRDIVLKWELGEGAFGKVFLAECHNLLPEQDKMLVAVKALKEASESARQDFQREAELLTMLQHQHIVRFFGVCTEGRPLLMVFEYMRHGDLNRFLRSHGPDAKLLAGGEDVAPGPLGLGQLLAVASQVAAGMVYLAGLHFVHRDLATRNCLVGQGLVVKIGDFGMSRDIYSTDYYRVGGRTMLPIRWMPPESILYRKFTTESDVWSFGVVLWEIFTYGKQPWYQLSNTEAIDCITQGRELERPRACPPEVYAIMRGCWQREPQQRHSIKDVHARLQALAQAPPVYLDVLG

Tyrosine-protein kinase ABL1, sequence (P00519 whole entry): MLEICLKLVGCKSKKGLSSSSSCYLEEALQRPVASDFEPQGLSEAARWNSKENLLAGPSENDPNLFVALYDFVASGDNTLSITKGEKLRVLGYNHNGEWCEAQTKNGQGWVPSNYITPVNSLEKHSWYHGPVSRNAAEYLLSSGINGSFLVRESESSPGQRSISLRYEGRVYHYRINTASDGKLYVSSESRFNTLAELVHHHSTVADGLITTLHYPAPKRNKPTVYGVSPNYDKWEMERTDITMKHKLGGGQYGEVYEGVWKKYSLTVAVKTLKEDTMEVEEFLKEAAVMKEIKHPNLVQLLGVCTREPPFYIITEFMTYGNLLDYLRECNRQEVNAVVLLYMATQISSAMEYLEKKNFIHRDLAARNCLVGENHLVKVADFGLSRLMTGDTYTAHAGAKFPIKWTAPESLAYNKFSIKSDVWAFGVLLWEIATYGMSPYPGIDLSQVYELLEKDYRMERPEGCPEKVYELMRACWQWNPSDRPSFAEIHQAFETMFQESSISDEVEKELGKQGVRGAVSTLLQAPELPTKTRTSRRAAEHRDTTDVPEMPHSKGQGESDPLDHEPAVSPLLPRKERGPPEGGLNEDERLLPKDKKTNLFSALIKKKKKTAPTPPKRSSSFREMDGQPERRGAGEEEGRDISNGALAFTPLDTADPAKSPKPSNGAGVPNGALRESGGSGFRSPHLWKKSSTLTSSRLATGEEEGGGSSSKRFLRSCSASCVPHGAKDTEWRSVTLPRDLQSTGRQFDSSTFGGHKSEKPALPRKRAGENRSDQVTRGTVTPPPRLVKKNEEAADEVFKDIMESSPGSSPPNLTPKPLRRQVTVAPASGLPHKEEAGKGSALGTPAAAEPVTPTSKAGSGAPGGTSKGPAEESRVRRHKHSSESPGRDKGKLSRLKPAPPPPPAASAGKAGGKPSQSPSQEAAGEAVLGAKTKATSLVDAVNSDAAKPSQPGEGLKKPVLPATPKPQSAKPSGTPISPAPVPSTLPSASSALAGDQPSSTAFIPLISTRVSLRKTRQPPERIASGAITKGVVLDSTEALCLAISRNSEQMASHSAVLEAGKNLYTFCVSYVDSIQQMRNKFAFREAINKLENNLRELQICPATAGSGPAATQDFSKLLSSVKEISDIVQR
Tyrosine-protein kinase Fyn, sequence (P06241 whole entry): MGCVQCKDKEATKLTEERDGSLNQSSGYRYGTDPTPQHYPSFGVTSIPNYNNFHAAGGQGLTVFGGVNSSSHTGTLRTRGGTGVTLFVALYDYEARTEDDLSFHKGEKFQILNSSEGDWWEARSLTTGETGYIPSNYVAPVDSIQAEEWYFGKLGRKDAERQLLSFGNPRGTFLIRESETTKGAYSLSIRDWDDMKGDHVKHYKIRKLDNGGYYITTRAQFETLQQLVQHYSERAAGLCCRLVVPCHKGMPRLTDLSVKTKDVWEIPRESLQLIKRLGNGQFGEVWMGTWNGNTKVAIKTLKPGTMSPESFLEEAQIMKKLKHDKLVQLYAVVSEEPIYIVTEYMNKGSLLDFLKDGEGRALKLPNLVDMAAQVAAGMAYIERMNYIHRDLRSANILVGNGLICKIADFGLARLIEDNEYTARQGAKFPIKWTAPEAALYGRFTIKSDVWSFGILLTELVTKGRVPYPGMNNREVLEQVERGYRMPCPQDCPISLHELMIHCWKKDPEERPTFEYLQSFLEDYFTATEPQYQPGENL
Cyclin-dependent kinase 5, sequence (Q00535 whole entry): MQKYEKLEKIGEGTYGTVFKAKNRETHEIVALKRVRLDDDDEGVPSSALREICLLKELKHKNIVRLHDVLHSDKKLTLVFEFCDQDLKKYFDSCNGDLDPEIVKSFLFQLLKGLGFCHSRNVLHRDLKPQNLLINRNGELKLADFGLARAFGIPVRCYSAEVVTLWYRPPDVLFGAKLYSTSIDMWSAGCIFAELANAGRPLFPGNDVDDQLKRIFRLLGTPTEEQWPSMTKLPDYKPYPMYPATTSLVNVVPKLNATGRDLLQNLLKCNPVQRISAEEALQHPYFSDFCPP
Mitogen-activated protein kinase kinase kinase kinase 4, sequence (O95819 whole entry): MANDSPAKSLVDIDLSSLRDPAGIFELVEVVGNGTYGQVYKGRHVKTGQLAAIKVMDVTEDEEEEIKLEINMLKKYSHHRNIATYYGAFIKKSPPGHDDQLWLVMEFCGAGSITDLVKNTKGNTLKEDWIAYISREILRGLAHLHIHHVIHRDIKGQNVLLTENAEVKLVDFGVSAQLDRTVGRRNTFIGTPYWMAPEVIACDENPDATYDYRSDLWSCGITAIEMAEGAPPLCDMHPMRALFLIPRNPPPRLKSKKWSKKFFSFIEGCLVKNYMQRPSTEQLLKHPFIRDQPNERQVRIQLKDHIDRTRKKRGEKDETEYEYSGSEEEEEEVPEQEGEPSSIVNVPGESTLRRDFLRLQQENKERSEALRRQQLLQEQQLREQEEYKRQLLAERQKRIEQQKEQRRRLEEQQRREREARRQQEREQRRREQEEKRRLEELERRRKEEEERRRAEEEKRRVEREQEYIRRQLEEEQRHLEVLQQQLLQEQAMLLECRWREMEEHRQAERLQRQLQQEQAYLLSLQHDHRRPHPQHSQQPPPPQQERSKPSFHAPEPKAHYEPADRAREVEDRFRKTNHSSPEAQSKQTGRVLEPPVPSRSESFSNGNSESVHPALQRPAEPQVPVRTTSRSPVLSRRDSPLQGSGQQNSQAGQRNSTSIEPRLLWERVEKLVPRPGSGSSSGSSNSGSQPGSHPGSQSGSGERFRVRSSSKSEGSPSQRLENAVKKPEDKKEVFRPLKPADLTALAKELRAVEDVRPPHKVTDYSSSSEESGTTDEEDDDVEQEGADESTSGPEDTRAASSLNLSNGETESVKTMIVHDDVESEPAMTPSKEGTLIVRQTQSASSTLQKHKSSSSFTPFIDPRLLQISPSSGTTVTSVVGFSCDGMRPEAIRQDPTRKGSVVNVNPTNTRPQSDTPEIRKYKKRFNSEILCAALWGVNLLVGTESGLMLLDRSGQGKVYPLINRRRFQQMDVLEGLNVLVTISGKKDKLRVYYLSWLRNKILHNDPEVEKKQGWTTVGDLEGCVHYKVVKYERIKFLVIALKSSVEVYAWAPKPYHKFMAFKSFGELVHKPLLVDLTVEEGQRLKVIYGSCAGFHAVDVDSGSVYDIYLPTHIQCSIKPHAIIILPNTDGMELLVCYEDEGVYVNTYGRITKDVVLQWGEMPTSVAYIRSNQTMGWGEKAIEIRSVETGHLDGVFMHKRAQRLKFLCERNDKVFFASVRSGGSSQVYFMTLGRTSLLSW
Focal adhesion kinase 1, sequence (Q05397 whole entry): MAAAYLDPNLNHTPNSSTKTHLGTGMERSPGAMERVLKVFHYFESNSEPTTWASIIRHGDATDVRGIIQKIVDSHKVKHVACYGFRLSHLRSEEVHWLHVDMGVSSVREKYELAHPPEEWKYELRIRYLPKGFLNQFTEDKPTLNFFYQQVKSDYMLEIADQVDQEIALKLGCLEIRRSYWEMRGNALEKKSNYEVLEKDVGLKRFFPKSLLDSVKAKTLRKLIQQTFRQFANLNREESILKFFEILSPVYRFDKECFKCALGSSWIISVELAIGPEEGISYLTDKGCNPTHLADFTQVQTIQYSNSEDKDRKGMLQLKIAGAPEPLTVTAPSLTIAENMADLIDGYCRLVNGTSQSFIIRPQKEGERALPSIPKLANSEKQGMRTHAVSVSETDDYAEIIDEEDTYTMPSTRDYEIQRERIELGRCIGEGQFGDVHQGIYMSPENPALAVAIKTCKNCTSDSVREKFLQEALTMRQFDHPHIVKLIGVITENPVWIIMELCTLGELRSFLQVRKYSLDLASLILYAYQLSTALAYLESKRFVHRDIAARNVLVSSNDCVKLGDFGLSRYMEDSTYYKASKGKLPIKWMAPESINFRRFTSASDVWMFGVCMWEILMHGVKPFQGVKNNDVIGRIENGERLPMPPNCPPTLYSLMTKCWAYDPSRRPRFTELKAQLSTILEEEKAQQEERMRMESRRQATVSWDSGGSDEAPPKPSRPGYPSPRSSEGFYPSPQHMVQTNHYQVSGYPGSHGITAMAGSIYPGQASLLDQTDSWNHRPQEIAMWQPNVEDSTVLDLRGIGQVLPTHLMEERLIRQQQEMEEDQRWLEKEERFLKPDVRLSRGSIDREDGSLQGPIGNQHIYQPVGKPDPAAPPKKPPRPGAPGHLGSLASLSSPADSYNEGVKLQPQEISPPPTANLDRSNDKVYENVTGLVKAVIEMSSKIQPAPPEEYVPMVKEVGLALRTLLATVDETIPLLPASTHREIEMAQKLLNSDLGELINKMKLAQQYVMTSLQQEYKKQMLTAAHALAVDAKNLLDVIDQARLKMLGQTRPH

O=C(Cc1ccccc1)NC1(O)C(=O)c2ccccc2C1=O
EC50 (Protein RecA): 8.67 µM (active)

O=c1[nH]c2cc(Br)cnc2[nH]1
Ki [1]: 15.8 µM (active)
Ki (Focal adhesion kinase 1): 31.6 µM (active)
Ki [2]: 0.0501 µM (active)
Ki [3]: 79.4 µM (active)
Ki [4]: 31.6 µM (active)
Ki [5]: 50.1 µM (active)
Ki [6]: 100 µM (active)

O=C(Nc1cccc(C(F)(F)F)n1)Nc1ccnc2cc(OC(F)F)ccc12
Ki [1]: > 3.16 µM (inactive)
Ki (Focal adhesion kinase 1): > 6.31 µM (inactive)
Ki [2]: > 3.16 µM (inactive)
Ki [3]: > 3.16 µM (inactive)
Ki [4]: > 3.16 µM (inactive)
Ki [7]: > 2.51 µM (inactive)
Ki [8]: > 5.01 µM (inactive)
Ki [9]: > 2.51 µM (inactive)
Ki [5]: > 5.01 µM (inactive)
Ki [10]: > 3.16 µM (inactive)
Ki [6]: > 6.31 µM (inactive)

O=C(Nc1cccc(C(F)(F)F)n1)Nc1ccnc2cc(Cl)ccc12
Ki [1]: 3.98 µM (active)
Ki [2]: > 3.16 µM (inactive)
Ki [3]: > 3.16 µM (inactive)
Ki [4]: > 3.16 µM (inactive)
Ki [7]: > 2.51 µM (inactive)
Ki [8]: > 5.01 µM (inactive)
Ki [9]: > 2.51 µM (inactive)
Ki [10]: 2.51 µM (active)
Ki [6]: > 6.31 µM (inactive)

CCC1CC(NS(=O)(=O)C2CC2)CC1c1ncc2cnc3[nH]ccc3n12 (stereo not given)
Ki (Focal adhesion kinase 1): > 6.31 µM (inactive)
Ki [2]: > 3.16 µM (inactive)
Ki [3]: > 3.16 µM (inactive)
Ki [4]: > 2 µM (inactive)
Ki [7]: > 2.51 µM (inactive)
Ki [8]: > 5.01 µM (inactive)
Ki [9]: > 2.51 µM (inactive)
Ki [5]: > 5.01 µM (inactive)
Ki [10]: > 3.16 µM (inactive)
Ki [6]: > 6.31 µM (inactive)

Cc1cc(C)c(S(=O)(=O)/N=C2\C=C(Nc3ccc(C(=O)O)cc3)C(=O)c3ccccc32)c(C)c1
EC50 (Protein RecA): 0.0696 µM (active)

COC(=O)c1nc(-c2ccc3c(n2)C(=O)C(=N)C(OC)=C3O)c(N)c(-c2ccc(OC)c(OC)c2O)c1C
EC50 (Protein RecA): 0.342 µM (active)
